Measurements from ChEMBL document CHEMBL3272201, “Synthesis of tetrazole ribonucleosides and their evaluation as antiviral agents” (J Med Chem, 1976).
Active and inactive are the calls of the source. The calls are words filed in the database; no cut-off is given here.

Assays:
Format in all cases: functional, organism-based
Influenza A virus [1] = test: (§1) Antiviral activity against Influenza A virus (A2/Asian/J305) infected in Swiss albino mouse assessed as increase in host survival at 100 mg/kg, ip administered 4 hrs before infection, 1 hr after infection followed by twice daily for next 6 days for total of 14 treatments measured on 21st day post-infection; parameters: dose 100 mg/kg
Influenza A virus [2] = test: as §1, with “25” for “100”; parameters: dose 25 mg/kg
Influenza A virus [3] = test: as §1, with “20” for “100”; parameters: dose 20 mg/kg

Row | Structure (SMILES) | Activity (Influenza A virus [1]) | other results
1 | OC[C@H]1O[C@@H](n2cnnn2)[C@H](O)[C@@H]1O | inactive | 
2 | NC(=O)c1nnnn1[C@@H]1O[C@H](CO)[C@@H](O)[C@H]1O | inactive | 
3 | NC(=O)Cc1nnnn1[C@@H]1O[C@H](CO)[C@@H](O)[C@H]1O |  | Activity (Influenza A virus [2]): inactive
4 | NC(=O)c1ncn([C@@H]2O[C@H](CO)[C@@H](O)[C@H]2O)n1 |  | Activity (Influenza A virus [3]): Active
